{"source": "patent US20080058515A1", "about": "“Chemical Compounds” (priority 2003, published 2008)", "data": [{"biological_target": "T1, Serum Glucocorticoid-regulated Kinase-1 (SGK-1) (Homo sapiens, UniProt O00141, S422D)", "T1 construct": "a truncated form of the human enzyme that included amino acids 61-431; 6xHis (N); made in house", "T1 sequence (O00141 61-431 S422D)": "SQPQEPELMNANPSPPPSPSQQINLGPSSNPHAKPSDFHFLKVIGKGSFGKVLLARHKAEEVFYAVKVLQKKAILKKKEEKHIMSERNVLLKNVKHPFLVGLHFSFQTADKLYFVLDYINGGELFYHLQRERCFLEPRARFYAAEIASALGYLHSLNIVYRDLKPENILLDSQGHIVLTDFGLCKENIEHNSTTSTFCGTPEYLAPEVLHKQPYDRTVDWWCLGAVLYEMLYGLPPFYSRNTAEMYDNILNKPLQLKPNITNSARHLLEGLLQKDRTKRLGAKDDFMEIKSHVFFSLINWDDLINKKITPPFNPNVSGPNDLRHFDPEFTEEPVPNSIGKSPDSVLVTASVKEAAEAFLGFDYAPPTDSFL", "assay": "SGK-1 Enzyme Assay (SGK1e), substrate phosphorylation, scintillation proximity", "type": "biochemical", "conditions": "truncated human SGK-1 (aa 61-431, S422D), 10 μM ATP, Crosstide substrate", "protocol": "Compounds of the present invention were tested for Serum Glucocorticoid-regulated Kinase-1 (SGK-1) protein serine/threonine kinase inhibitory activity in substrate phosphorylation assays using enzyme purified from a baculovirus expression vector system. The recombinant baculovirus was made to express the intracellular domain of SGK-1 (GenBank accession number MD41091). The virus expressed a truncated form of the human enzyme that included amino acids 61-431. Serine422 was replaced with Aspartic acid to activate the enzyme, and 6 Histidine residues were added at the amino terminus to facilitate purification. The protein was purified using Ni-NTA agarose affinity chromatography. The peptide substrate was an N-terminal biotinylated sunthetic peptide named Crosstide (biotin-Ahx-GRPRTSSFAEG-OH), corresponding to the sequence in GSK3 surrounding the serine phosphorylated by MAPKAP Kinase-1/Rsk and p70 S6 Kinase.\nThe method measures the ability of the isolated enzyme to catalyze the transfer of the γ-phosphate from ATP onto serine/threonine residues in the biotinylated Crosstide. Reactions were performed in 96-well polystyrene round-bottom plates in a final volume of 30 uL. Reaction mixtures contained 62.5 mM HEPES (pH 7.4), 10 mM MgCl2, 0.1 mM EDTA, 0.0024% TWEEN-20, and 1 mM DTT (added fresh daily), 10 μM ATP, 0.2 μCi [[v-^33P] ATP per reaction, 4 μM Crosstide peptide substrate, and 1 nM SGK1 enzyme. Reactions were initiated by adding the indicated enzyme. The reaction was allowed to proceed for 2 hours, then terminated by the addition of 50 mM EDTA and quantified using a scintillation proximity assay procedure as described (McDonald, O. B., Antonsson, B., Arkinstal, S., Marshall, C. J., and Wood, E. R. (1999) Analytical Biochemistry, 268, 318-329).\nCompounds under analysis were dissolved in Me2SO to 1 mM and serially diluted 1 to 3 with Me2SO through eleven columns of a 96 well plate. 1 uL of each concentration was transferred to the corresponding well of the assay plate. This created a final compound concentration range from 0.56 nM to 33.3 uM.\nThe data for dose responses were plotted as % Control calculated with the data reduction formula 100*(U1-C2)/(C1-C2) versus concentration of compound and fitted to the curve described by:\nwhere Vmax is the upper asymptote and K is the IC50", "units": {"IC50": "nM"}, "values": [{"smiles": "O=C(/C=C/c1n[nH]c2ccccc12)Nc1ccc(C(=O)NCCc2cccnc2)cc1", "note": "[Example 36, 4-(((2E)-3-(1H-indazol-3-yl)prop-2-enoyl)amino)-N-(2-pyridin-3-ylethyl)benzamide]", "IC50": "< 1000"}, {"smiles": "CCOC(=O)C1CCN(C(=O)/C=C/c2n[nH]c3ccccc23)CC1", "note": "[Example 27, Ethyl 1-[(2E)-3-(1H-indazol-3-yl)prop-2-enoyl]piperidine-4-carboxylate]", "IC50": "1000 to 10000"}, {"smiles": "CCN(Cc1ccncc1)C(=O)c1cccc(NC(=O)/C=C/c2n[nH]c3ccccc23)c1", "note": "[Example 41, N-ethyl-3-(((2E)-3-(1H-indazol-3-yl)prop-2-enoyl)amino)-N-(pyridin-4-ylmethyl)benzamide]", "IC50": "< 1000"}, {"smiles": "CCCN(C)CCOc1ccc(NC(=O)/C=C/c2n[nH]c3ccccc23)cc1OC", "note": "[Example 19, (2E)-3-(1H-indazol-3-yl)-N-(3-methoxy-4-{2-[methyl(propyl)amino]ethoxy}phenyl)-2-propenamide]", "IC50": "< 1000"}, {"smiles": "O=C(/C=C/c1n[nH]c2ccccc12)Nc1cccc(C(=O)c2ccccc2)c1", "note": "[Example 12, (2E)-N-(3-benzoylphenyl)-3-(1H-indazol-3-yl)-2-propenamide]", "IC50": "< 1000"}, {"smiles": "COc1cc(NC(=O)/C=C/c2n[nH]c3ccccc23)ccc1OCCN(C(C)C)C(C)C", "note": "[Example 15, (2E)-N-[4-[2-(diisopropylamino)ethoxy]-3-methoxyphenyl]-3-(1H-indazol-3-yl)-2-propenamide]", "IC50": "< 1000"}, {"smiles": "O=C(/C=C/c1n[nH]c2ccccc12)Nc1ccc2ncsc2c1", "note": "[Example 1, (2E)-N-(1,3-benzothiazol-6-yl)-3-(1H-indazol-3-yl)-2-propenamide]", "IC50": "< 1000"}, {"smiles": "O=C(/C=C/c1n[nH]c2ccccc12)N1CCC2(CC1)C(=O)NCN2c1ccccc1", "note": "[Example 30, 8-[(2E)-3-(1H-indazol-3-yl)prop-2-enoyl]-1-phenyl-1,3,8-triazaspiro[4.5]decan-4-one]", "IC50": "< 1000"}, {"smiles": "N#Cc1ccccc1NC(=O)/C=C/c1n[nH]c2ccccc12", "note": "[Example 3, (2E)-N-(2-cyanophenyl)-3-(1H-indazol-3-yl)-2-propenamide]", "IC50": "< 1000"}, {"smiles": "CC(C)CNC(=O)/C=C/c1n[nH]c2ccccc12", "note": "[Example 24, (2E)-3-(1H-indazol-3-yl)-N-isobutylprop-2-enamide]", "IC50": "1000 to 10000"}]}]}
